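Test compounds were applied to cells in 96-well plates for 48 hours at 5 doses. The concentration for 50% growth inhibition is given as GI50. The concentration for full growth arrest is given as TGI.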
Tests used:
Assay in all cases: NCI-60 cell line screen, 48 h
786-0 renal = test system: 786-0 renal
A498 renal = test system: A498 renal
A549 NSCLC = test system: A549 NSCLC
ACHN renal = test system: ACHN renal
BT-549 breast = test system: BT-549 breast
CAKI-1 renal = test system: CAKI-1 renal
CCRF-CEM leukemia = test system: CCRF-CEM leukemia
COLO 205 colon = test system: COLO 205 colon
DU-145 prostate = test system: DU-145 prostate
EKVX NSCLC = test system: EKVX NSCLC
HCC-2998 colon = test system: HCC-2998 colon
HCT-116 colon = test system: HCT-116 colon
HCT-15 colon = test system: HCT-15 colon
HL-60(TB) leukemia = test system: HL-60(TB) leukemia
HOP-62 NSCLC = test system: HOP-62 NSCLC
HOP-92 NSCLC = test system: HOP-92 NSCLC
HS 578T breast = test system: HS 578T breast
HT29 colon = test system: HT29 colon
IGROV1 ovarian = test system: IGROV1 ovarian
K-562 leukemia = test system: K-562 leukemia
KM12 colon = test system: KM12 colon
LOX IMVI melanoma = test system: LOX IMVI melanoma
M14 melanoma = test system: M14 melanoma
MCF7 breast = test system: MCF7 breast
MDA-MB-231 breast = test system: MDA-MB-231 breast
MDA-MB-435 = test system: MDA-MB-435
MOLT-4 leukemia = test system: MOLT-4 leukemia
NCI-H226 lung = test system: NCI-H226 lung
NCI-H460 lung = test system: NCI-H460 lung
NCI-H522 lung = test system: NCI-H522 lung
NCI/ADR-RES ovarian = test system: NCI/ADR-RES ovarian
OVCAR-3 ovarian = test system: OVCAR-3 ovarian
OVCAR-4 ovarian = test system: OVCAR-4 ovarian
OVCAR-5 ovarian = test system: OVCAR-5 ovarian
OVCAR-8 ovarian = test system: OVCAR-8 ovarian
PC-3 prostate = test system: PC-3 prostate
RPMI-8226 leukemia = test system: RPMI-8226 leukemia
RXF 393 renal = test system: RXF 393 renal
SF-268 CNS = test system: SF-268 CNS
SF-295 CNS = test system: SF-295 CNS
SF-539 CNS = test system: SF-539 CNS
SK-MEL-2 melanoma = test system: SK-MEL-2 melanoma
SK-MEL-28 melanoma = test system: SK-MEL-28 melanoma
SK-MEL-5 melanoma = test system: SK-MEL-5 melanoma
SK-OV-3 ovarian = test system: SK-OV-3 ovarian
SN12C renal = test system: SN12C renal
SNB-19 CNS = test system: SNB-19 CNS
SNB-75 CNS = test system: SNB-75 CNS
SR leukemia = test system: SR leukemia
SW-620 colon = test system: SW-620 colon
T-47D breast = test system: T-47D breast
TK-10 renal = test system: TK-10 renal
U251 CNS = test system: U251 CNS
UACC-257 melanoma = test system: UACC-257 melanoma
UACC-62 melanoma = test system: UACC-62 melanoma
UO-31 renal = test system: UO-31 renal
MALME-3M melanoma = test system: MALME-3M melanoma
NCI-H23 lung = test system: NCI-H23 lung

## COC(=O)c1ccc(C2SC(C)C(=O)N2NC(=O)C(O)c2ccccc2)cc1 (centres undefined)
786-0 renal
  GI50: > 100 µM
  TGI: > 100 µM
A498 renal
  GI50: > 100 µM
  TGI: > 100 µM
A549 NSCLC
  GI50: > 100 µM
  TGI: > 100 µM
ACHN renal
  GI50: > 100 µM
  TGI: > 100 µM
BT-549 breast
  GI50: > 100 µM
  TGI: > 100 µM
CAKI-1 renal
  GI50: > 100 µM
  TGI: > 100 µM
CCRF-CEM leukemia
  GI50: > 100 µM
  TGI: > 100 µM
COLO 205 colon
  GI50: > 100 µM
  TGI: > 100 µM
DU-145 prostate
  GI50: > 100 µM
  TGI: > 100 µM
EKVX NSCLC
  GI50: > 100 µM
  TGI: > 100 µM
HCC-2998 colon
  GI50: > 100 µM
  TGI: > 100 µM
HCT-116 colon
  GI50: > 100 µM
  TGI: > 100 µM
HCT-15 colon
  GI50: > 100 µM
  TGI: > 100 µM
HL-60(TB) leukemia
  GI50: > 100 µM
  TGI: > 100 µM
HOP-62 NSCLC
  GI50: > 100 µM
  TGI: > 100 µM
HOP-92 NSCLC
  GI50: > 100 µM
  TGI: > 100 µM
HS 578T breast
  GI50: > 100 µM
  TGI: > 100 µM
HT29 colon
  GI50: > 100 µM
  TGI: > 100 µM
IGROV1 ovarian
  GI50: > 100 µM
  TGI: > 100 µM
K-562 leukemia
  GI50: > 100 µM
  TGI: > 100 µM
KM12 colon
  GI50: > 100 µM
  TGI: > 100 µM
LOX IMVI melanoma
  GI50: > 100 µM
  TGI: > 100 µM
M14 melanoma
  GI50: > 100 µM
  TGI: > 100 µM
MCF7 breast
  GI50: > 100 µM
  TGI: > 100 µM
MDA-MB-231 breast
  GI50: > 100 µM
  TGI: > 100 µM
MDA-MB-435
  GI50: > 100 µM
  TGI: > 100 µM
MOLT-4 leukemia
  GI50: > 100 µM
  TGI: > 100 µM
NCI-H226 lung
  GI50: > 100 µM
  TGI: > 100 µM
NCI-H460 lung
  GI50: > 100 µM
  TGI: > 100 µM
NCI-H522 lung
  GI50: > 100 µM
  TGI: > 100 µM
NCI/ADR-RES ovarian
  GI50: > 100 µM
  TGI: > 100 µM
OVCAR-3 ovarian
  GI50: > 100 µM
  TGI: > 100 µM
OVCAR-4 ovarian
  GI50: > 100 µM
  TGI: > 100 µM
OVCAR-5 ovarian
  GI50: > 100 µM
  TGI: > 100 µM
OVCAR-8 ovarian
  GI50: > 100 µM
  TGI: > 100 µM
PC-3 prostate
  GI50: > 100 µM
  TGI: > 100 µM
RPMI-8226 leukemia
  GI50: > 100 µM
  TGI: > 100 µM
RXF 393 renal
  GI50: > 100 µM
  TGI: > 100 µM
SF-268 CNS
  GI50: > 100 µM
  TGI: > 100 µM
SF-295 CNS
  GI50: > 100 µM
  TGI: > 100 µM
SF-539 CNS
  GI50: > 100 µM
  TGI: > 100 µM
SK-MEL-2 melanoma
  GI50: > 100 µM
  TGI: > 100 µM
SK-MEL-28 melanoma
  GI50: > 100 µM
  TGI: > 100 µM
SK-MEL-5 melanoma
  GI50: > 100 µM
  TGI: > 100 µM
SK-OV-3 ovarian
  GI50: > 100 µM
  TGI: > 100 µM
SN12C renal
  GI50: > 100 µM
  TGI: > 100 µM
SNB-19 CNS
  GI50: > 100 µM
  TGI: > 100 µM
SNB-75 CNS
  GI50: > 100 µM
  TGI: > 100 µM
SR leukemia
  GI50: > 100 µM
  TGI: > 100 µM
SW-620 colon
  GI50: > 100 µM
  TGI: > 100 µM
T-47D breast
  GI50: > 100 µM
  TGI: > 100 µM
TK-10 renal
  GI50: > 100 µM
  TGI: > 100 µM
U251 CNS
  GI50: > 100 µM
  TGI: > 100 µM
UACC-257 melanoma
  GI50: > 100 µM
  TGI: > 100 µM
UACC-62 melanoma
  GI50: > 100 µM
  TGI: > 100 µM
UO-31 renal
  GI50: > 100 µM
  TGI: > 100 µM

## NC(N)=NCCN1CCCCCc2ccccc21
786-0 renal
  TGI: > 10 µM
A498 renal
  TGI: > 10 µM
A549 NSCLC
  TGI: > 10 µM
ACHN renal
  TGI: > 10 µM
BT-549 breast
  TGI: > 10 µM
CAKI-1 renal
  TGI: > 10 µM
CCRF-CEM leukemia
  TGI: > 10 µM
COLO 205 colon
  TGI: > 10 µM
DU-145 prostate
  TGI: > 10 µM
EKVX NSCLC
  TGI: > 10 µM
HCC-2998 colon
  TGI: > 10 µM
HCT-116 colon
  TGI: > 10 µM
HCT-15 colon
  TGI: > 10 µM
HL-60(TB) leukemia
  TGI: > 10 µM
HOP-62 NSCLC
  TGI: > 10 µM
HOP-92 NSCLC
  TGI: > 10 µM
HS 578T breast
  TGI: > 10 µM
HT29 colon
  TGI: > 10 µM
IGROV1 ovarian
  TGI: > 10 µM
K-562 leukemia
  TGI: > 10 µM
KM12 colon
  TGI: > 10 µM
LOX IMVI melanoma
  TGI: > 10 µM
M14 melanoma
  TGI: > 10 µM
MALME-3M melanoma
  TGI: > 10 µM
MCF7 breast
  TGI: > 10 µM
MDA-MB-231 breast
  TGI: > 10 µM
MDA-MB-435
  TGI: > 10 µM
MOLT-4 leukemia
  TGI: > 10 µM
NCI-H226 lung
  TGI: > 10 µM
NCI-H23 lung
  TGI: > 10 µM
NCI-H460 lung
  TGI: > 10 µM
NCI-H522 lung
  TGI: > 10 µM
NCI/ADR-RES ovarian
  TGI: > 10 µM
OVCAR-3 ovarian
  TGI: > 10 µM
OVCAR-4 ovarian
  TGI: > 10 µM
OVCAR-5 ovarian
  TGI: > 10 µM
OVCAR-8 ovarian
  TGI: > 10 µM
PC-3 prostate
  TGI: > 10 µM
RPMI-8226 leukemia
  TGI: > 10 µM
RXF 393 renal
  TGI: > 10 µM
SF-268 CNS
  TGI: > 10 µM
SF-295 CNS
  TGI: > 10 µM
SF-539 CNS
  TGI: > 10 µM
SK-MEL-2 melanoma
  TGI: > 10 µM
SK-MEL-28 melanoma
  TGI: > 10 µM
SK-MEL-5 melanoma
  TGI: > 10 µM
SK-OV-3 ovarian
  TGI: > 10 µM
SN12C renal
  TGI: > 10 µM
SNB-19 CNS
  TGI: > 10 µM
SNB-75 CNS
  TGI: > 10 µM
SR leukemia
  TGI: > 10 µM
SW-620 colon
  TGI: > 10 µM
T-47D breast
  TGI: > 10 µM
TK-10 renal
  TGI: > 10 µM
U251 CNS
  TGI: > 10 µM
UACC-257 melanoma
  TGI: > 10 µM
UACC-62 melanoma
  TGI: > 10 µM
